Source: US4371537A, “Sulfur-substituted phenoxypyridines having antiviral activity” (The Dow Chemical Company, priority 1981, dated 1983)
Converted amounts (≈) assume the structure as drawn.

What was measured:
[1] = Cytotoxicity in tissue culture testing (HeLa monolayers); type: cell-based; settings: human; HeLa cells; observed at 48 and 72 hours post-treatment; read-out: Cytotoxicity: concentration of the compound found to be toxic to the cell
Procedure, shortened: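 Compound in Eagle's medium plus fetal calf serum was applied to monolayered HeLa cells; cultures were then infected with RV-1A, RV-2 or Coxsackie A21, with RV-5, RV-8 or RV-64 for some compounds. Controls received no compound or no virus.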

[2] = system: rhinovirus type 1A (RV-1A); assay: Tissue culture testing, rhinovirus type 1A in HeLa cells; type: cell-based; settings: Enterovirus, 48 and 72 hours, NA = not active at the standard test conditions, read-out: RV-1A: lowest concentration of the compound necessary to cause a 50 percent reduction in cytopathic effect
Procedure, shortened: (§1)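 Monolayer HeLa cells were pretreated with compound in Eagle's medium with fetal calf serum, then challenged with virus in medium. Untreated and uninfected controls were run. Values are the lowest compound concentration (μg/ml) needed for the scored effect.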

rhinovirus type 8 (RV-8) = assay: Tissue culture testing, rhinovirus type 8 in HeLa cells; type: cell-based; settings: Enterovirus, 48 and 72 hours, NA = not active at the standard test conditions, read-out: RV-8: lowest concentration of the compound necessary to cause a 50 percent reduction in cytopathic effect
Protocol: Monolayered HeLa cells in 16 millimeter (mm) tissue culture dishes were treated with 1 ml of culture medium (Eagles medium supplemented with fetal calf serum) containing subject compound at an appropriate concentration or containing no compound at all. Culture media such as those described herein are more fully described in standard texts, as for example, Kuchler's Biochemical Methods in Cell Culture and Virology, Dowden, Hutchinson and Ross, Inc., Stroudsberg, PA (1977). Following treatment, cells were challenged with 0.05 ml of rhinovirus type 1A (RV-1A), rhinovirus type 2 (RV-2) or Coxsackie A21 virus (Cox A21) in culture medium. Some of the compounds were also tested against rhinovirus type 5 (RV-5), rhinovirus type 8 (RV-8) or rhinovirus type 64 (RV-64). Cell controls received no viruses.
^2 Lowest concentration of the compound (μg/ml) necessary to cause

[3] = system: rhinovirus type 64 (RV-64); assay: Tissue culture testing, rhinovirus type 64 in HeLa cells; type: cell-based; settings: Enterovirus, 48 and 72 hours, NA = not active at the standard test conditions, read-out: RV-64: lowest concentration of the compound necessary to cause a 50 percent reduction in cytopathic effect
Procedure, shortened: as §1

Cox A21 = assay: Single Oral Dose test in mice challenged IP with Cox A21; type: in vivo, Swiss male mice; settings: 600 mg/kg P.O. 3 h after IP challenge; >3.84 significant (95% confidence level)
Procedure, shortened: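 A single P.O. treatment with compound suspended in 0.5% hydroxypropyl methylcellulose was given 3 h after intraperitoneal Cox A21 challenge at a normally lethal dose in 8-12 g male Swiss mice. Survival followed 7-10 days; significance versus vehicle-treated infected mice by modified Mantel-Haenzel chi-square (>3.84, 95% level).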

Coxsackie A21 virus = assay: Continuous Oral Feeding test in mice challenged IP with Coxsackie A21 virus; type: in vivo; settings: po, 0.06 % in diet, 240 h
Procedure, shortened: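 Activity judged by chi-square on 10-day deaths versus untreated controls, with values above 3.84 counted active at 95% confidence. The IP challenge (0.2 ml/mouse, HeLa-grown virus, 80 to 100% lethal in 8 to 12 g mice) came on day 1, after diet containing 0.06% (weight percent) compound began on day 0.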

Rhinovirus Type 4 = assay: Inhibition of cytopathic effect in WI-38 cell culture tubes, rhinovirus type 4; type: cell-based; settings: Enterovirus, WI-38 cells, read-out: Inhibition grade, Rhinovirus Type 4; for inhibition at 25 µg/mL: 25 μg/ml
Protocol: (§2) The test compound was dissolved in an appropriate solvent (generally dimethyl sulfoxide) and incubated at 56° C. for at least 15 minutes and this solution was then used to prepare various test solutions having the desired concentration of test compound in preheated WI maintenance medium (49% Eagles, 49% medium 199, 2% fetal calf serum and antibiotics).
(§3) Triplicate cell culture tubes (WI-38 human embryonic lung cell culture tubes) were fed with 1 ml of medium containing the compound at specified concentrations and inoculated with 3-300 TCID50 (3-300 times the tissue culture infective dose 50, i.e., the dose required to infect 50% of the cell cultures tested). Simultaneous viral titrations were performed. The tissue cultures were supplemented with fresh medium when necessary (around 3-4 days) until viral titrations were completed.
(§4) The cell culture tubes were examined dialy for cytopathic effect. […] Comparisons were made at that time with the percentage of cell sheet destruction in tubes containing virus compound mixtures. Observed differences of 75% or more were graded "+", 74-50% as "±", and less than 50% as "-" inhibition.

Rhinovirus Type 8 = assay: Inhibition of cytopathic effect in WI-38 cell culture tubes, rhinovirus type 8; type: cell-based; settings: Enterovirus, WI-38 cells, read-out: Inhibition grade, Rhinovirus Type 8; for inhibition at 25 µg/mL: 25 μg/ml
Protocol: as §2, §3, §4

Rhinovirus Type 17 = assay: Inhibition of cytopathic effect in WI-38 cell culture tubes, rhinovirus type 17; type: cell-based; settings: Enterovirus, WI-38 cells, read-out: Inhibition grade, Rhinovirus Type 17; for inhibition at 25 µg/mL: 25 μg/ml
Protocol: as §2, §3, §4

Rhinovirus Type 19 = assay: Inhibition of cytopathic effect in WI-38 cell culture tubes, rhinovirus type 19; type: cell-based; settings: Enterovirus, WI-38 cells, read-out: Inhibition grade, Rhinovirus Type 19; for inhibition at 25 µg/mL: 25 μg/ml
Protocol: as §2, §3, §4

Rhinovirus Type 39 = assay: Inhibition of cytopathic effect in WI-38 cell culture tubes, rhinovirus type 39; type: cell-based; settings: Enterovirus, WI-38 cells, read-out: Inhibition grade, Rhinovirus Type 39; for inhibition at 25 µg/mL: 25 μg/ml
Protocol: as §2, §3, §4

Rhinovirus Type 56 = assay: Inhibition of cytopathic effect in WI-38 cell culture tubes, rhinovirus type 56; type: cell-based; settings: Enterovirus, WI-38 cells, read-out: Inhibition grade, Rhinovirus Type 56; for inhibition at 25 µg/mL: 25 μg/ml
Protocol: as §2, §3, §4

Rhinovirus Type 59 = assay: Inhibition of cytopathic effect in WI-38 cell culture tubes, rhinovirus type 59; type: cell-based; settings: Enterovirus, WI-38 cells, read-out: Inhibition grade, Rhinovirus Type 59; for inhibition at 25 µg/mL: 25 μg/ml
Protocol: as §2, §3, §4

Rhinovirus Type 64 = assay: Inhibition of cytopathic effect in WI-38 cell culture tubes, rhinovirus type 64; type: cell-based; settings: Enterovirus, WI-38 cells, read-out: Inhibition grade, Rhinovirus Type 64; for inhibition at 25 µg/mL: 25 μg/ml
Protocol: as §2, §3, §4

Rhinovirus Type 68 = assay: Inhibition of cytopathic effect in WI-38 cell culture tubes, rhinovirus type 68; type: cell-based; settings: Enterovirus, WI-38 cells, read-out: Inhibition grade, Rhinovirus Type 68; for inhibition at 25 µg/mL: 25 μg/ml
Protocol: as §2, §3, §4

Rhinovirus Type 75 = assay: Inhibition of cytopathic effect in WI-38 cell culture tubes, rhinovirus type 75; type: cell-based; settings: Enterovirus, WI-38 cells, read-out: Inhibition grade, Rhinovirus Type 75; for inhibition at 25 µg/mL: 25 μg/ml
Protocol: as §2, §3, §4

| Structure (SMILES) | MCC [1] | EC50 [2] | EC50 (rhinovirus type 8 (RV-8)) | EC50 [3] | Single Oral Dose X^2 (chi-square, deaths vs virus control) (Cox A21) | Continuous Oral Feeding X^2 (chi-square, deaths vs control) (Coxsackie A21 virus) | inhibition at 25 µg/mL (Rhinovirus Type 4) | inhibition at 25 µg/mL (Rhinovirus Type 8) | inhibition at 25 µg/mL (Rhinovirus Type 17) | inhibition at 25 µg/mL (Rhinovirus Type 19) | inhibition at 25 µg/mL (Rhinovirus Type 39) | inhibition at 25 µg/mL (Rhinovirus Type 56) | inhibition at 25 µg/mL (Rhinovirus Type 59) | inhibition at 25 µg/mL (Rhinovirus Type 64) | inhibition at 25 µg/mL (Rhinovirus Type 68) | inhibition at 25 µg/mL (Rhinovirus Type 75) | further results |
| --- | --- | --- | --- | --- | --- | --- | --- | --- | --- | --- | --- | --- | --- | --- | --- | --- | --- |
| CCS(=O)(=O)c1ccc(Oc2ccc(C(=O)c3ccccc3)cc2)nc1 [Example 43, (4-((5-(ethylsulfonyl)-2-pyridinyl)oxy)phenyl)phenylmethanone] | 25 µg/mL | ≤ 3.12 µg/mL | 25 µg/mL (≈ 68 µM) | 6.25 µg/mL (≈ 17 µM) | 45.207 | 20.44 | – | – | – | – | – | – | – | – | – | – | inhibition at 3 µg/mL (Rhinovirus Type 4; 3.0 μg/ml): < 50%; inhibition at 3 µg/mL (Rhinovirus Type 8; 3.0 μg/ml): < 50%; inhibition at 3 µg/mL (Rhinovirus Type 17; 3.0 μg/ml): ≥ 75%; inhibition at 3 µg/mL (Rhinovirus Type 19; 3.0 μg/ml): < 50%; inhibition at 3 µg/mL (Rhinovirus Type 39; 3.0 μg/ml): < 50%; inhibition at 3 µg/mL (Rhinovirus Type 56; 3.0 μg/ml): < 50%; inhibition at 3 µg/mL (Rhinovirus Type 59; 3.0 μg/ml): < 50%; inhibition at 3 µg/mL (Rhinovirus Type 64; 3.0 μg/ml): < 50%; inhibition at 3 µg/mL (Rhinovirus Type 68; 3.0 μg/ml): 50 to 74%; inhibition at 3 µg/mL (Rhinovirus Type 75; 3.0 μg/ml): < 50% |
| CCS(=O)(=O)c1ccc(Oc2ccc(Cl)c(Cl)c2)nc1 [Example 47, 2-(3,4-dichlorophenoxy)-5-(ethylsulfonyl)pyridine] | > 50 µg/mL | 0.312 µg/mL (≈ 0.941 µM) | – | ≤ 0.312 µg/mL | 25.587 | 1.10 | ≥ 75% | < 50% | ≥ 75% | ≥ 75% | 50 to 74% | ≥ 75% | 50 to 74% | ≥ 75% | ≥ 75% | < 50% | – |
| CS(=O)(=O)c1ccc(Oc2ccc(C(=O)c3ccccc3)cc2)nc1 [Example 31, (4-((5-(methylsulfonyl)-2-pyridinyl)oxy)phenyl)phenylmethanone] | > 100 µg/mL | 12.5 µg/mL (≈ 35.4 µM) | 6.25 µg/mL (≈ 17.7 µM) | 2.5 µg/mL (≈ 7.07 µM) | 19.383 | 24.397 | ≥ 75% | < 50% | ≥ 75% | ≥ 75% | < 50% | ≥ 75% | ≥ 75% | 50 to 74% | ≥ 75% | < 50% | – |
| CCS(=O)(=O)c1ccc(Oc2ccc(Cl)cc2)nc1 [Example 42, 2-(4-chlorophenoxy)-5-(ethylsulfonyl)pyridine] | ≥ 50 µg/mL | 6.25 µg/mL (≈ 21 µM) | ~50 µg/mL (≈ 168 µM) | ≤ 3.12 µg/mL | 46.453 | 17.64 | – | – | – | – | – | – | – | – | – | – | inhibition at 12.5 µg/mL (Rhinovirus Type 4; 12.5 μg/ml): ≥ 75%; inhibition at 12.5 µg/mL (Rhinovirus Type 8; 12.5 μg/ml): < 50%; inhibition at 12.5 µg/mL (Rhinovirus Type 17; 12.5 μg/ml): ≥ 75%; inhibition at 12.5 µg/mL (Rhinovirus Type 19; 12.5 μg/ml): ≥ 75%; inhibition at 12.5 µg/mL (Rhinovirus Type 39; 12.5 μg/ml): < 50%; inhibition at 12.5 µg/mL (Rhinovirus Type 56; 12.5 μg/ml): 50 to 74%; inhibition at 12.5 µg/mL (Rhinovirus Type 59; 12.5 μg/ml): ≥ 75%; inhibition at 12.5 µg/mL (Rhinovirus Type 64; 12.5 μg/ml): ≥ 75%; inhibition at 12.5 µg/mL (Rhinovirus Type 68; 12.5 μg/ml): ≥ 75%; inhibition at 12.5 µg/mL (Rhinovirus Type 75; 12.5 μg/ml): 50 to 74% |
